Test results: US20240309090A1, “MODULATION OF ANDROGEN SIGNALING TO INNATE IMMUNE KILLING OF PROSTATE CANCER” (Brown University, priority 2023, published 2024)

Columns and labels:
NK-92 cells [1] = test: Flow cytometry of NK-92 activation markers CD69 and CD137; type: cell-based; conditions: NK-92 monoculture, 48 h
Procedure: The surface expression of the NK cell activation markers CD69 and CD137 were also evaluated following the treatment of NK cell monocultures with ARi (FIG. 13D-E).
(§1) PCa cells were plated at a density of 3×10^5 cells per well of a 6-well plate and adhered overnight. […] After treatment, cells were trypsinized, stained, and incubated (Cell Staining Buffer SouthernBiotech #0225-01S) with the corresponding antibody for 45-60 min at 4° C. Viability dye was added with each run. NK-92 cells and patient-derived cells were stained similarly. Markers used for experiments included: Thermofisher HLA-E Monoclonal Antibody (3D12HLA-E), Alexa Fluor™ 488, eBioscience™, CD274 (PD-L1, B7-H1) Monoclonal Antibody (MIH1), eFluor™ 450, eBioscience™, Cell Signaling PD-1 (D4W2J) XPR Rabbit mAb, SYTOX™ Orange Dead Cell Stain, for flow cytometry, BioLegend APC anti-human CD159a (NKG2A) Antibody #375108, BioLegend APC anti-human CD69 Antibody #310909, BioLegend Alexa Fluor® 647 anti-human CD137 (4-1BB) [4B4-1] #309823. For staining of the patient-derived PBMCs and subsequent NK cell characterization, the following antibodies were used: BioLegend Anti-Perforin Mouse Monoclonal Antibody (PerCP Cy5.50, clone: dG9) #308113, BioLegend Anti-Granzyme B Mouse Monoclonal Antibody (FITC, clone: GB11) #515403, BioLegend Anti-CD56 Mouse Monoclonal Antibody (Alexa Fluor® 700, clone: 5.1H1) #362521, and BioLegend (PE anti-human CD45 Antibody) #304008.

LNCaP = test: Co-culture of GFP-expressing LNCaP with patient-derived NK cells; type: cell-based, human; conditions: GFP LNCaP, 1:1, 24 h; monalizumab in combination with enza and daro
Excerpt: To validate an additive effect of ARi and monalizumab enhancing NK cell cytotoxicity, we performed a co-culture assay with GFP-labeled PCa cell lines (including ARi-sensitive LNCaP and ARi-resistant PC3) and patient-derived NK cells. The NK cells were negatively selected from whole blood from patients with metastatic prostate cancer before initiation of androgen deprivation therapy. The addition of enzalutamide or darolutamide enhanced the cytotoxicity of NK cells, and the combination of ARi with monalizumab potentiated immune killing (FIG. 15C-D).
Prostate cancer cell lines were dyed with the blue CMAC live-cell dye (Thermo Fisher Scientific #C2110, per manufacturer protocol). Blue-fluorescent cancer cells were plated at a density of 10,000 cells per well of a 48-well plate. NK-92 cells were dyed with green CMFDA (Cayman Chemical Company #19583, per manufacturer protocol). Green-fluorescent NK-92 cells were added to the blue-fluorescent cancer cells at a 1:1 ratio. Enzalutamide (10 μM), darolutamide (20 μM), and 1 μM ethidium homodimer (EthD-1) were added at the same time as the NK cells. After 24 hours of co-culture, images of live cancer cells, live NK cells, and dead cells were taken using a fluorescent microscope. The co-culture experiments were run with internal control conditions and as a single treatment. Normalization was performed after analysis to take baseline death conditions into each experiment run. To optimize the high output of these experiments, a subset of co-cultures were performed using the ImageXpress® Micro Confocal High-Content Imaging. This analysis maintained the experiment conditions, drug concentrations, and the dyeing process. When GFP-labeled tumor cells were used for culture assays, they were added in a 1:1 ratio. Cell adhered over 24 h, and when patient-derived NK cells were added, a control well was trypsinized, and cells resuspended and counted to adjust a 1:1 ratio before treatment addition. The experiments with blocking antibodies were performed using the ImageXpress system. TRAIL blocking ab was purchased from Santa Cruz TRAIL Antibody (RIK-2): sc-56246, and IFN gamma blocking Monoclonal Antibody (NIB42, #6-7318-81) was purchased from Thermo Fisher. The blocking mAb was added when NK cells were combined with tumor cells.
NK cells were isolated from patients harboring metastatic castration-sensitive prostate cancer using the MojoSort™ Human NK Cell Isolation Kit (#480053). Patients signed informed consent for IRB-approved research protocol number 2055-13, allowing the collection of peripheral blood samples. […] The untouched NK cells (CD56+, CD3−) were collected, and the purity of isolation was determined by flow cytometry using anti-CD56 (BioLegend 362503). […]

NK-92 cells [2] = test: Cytokine secretion of NK-92 monoculture (Luminex 200); type: cell-based; conditions: for NK-92 secretion of T cell chemokine CCL5: FIG. 13A (A6); for NK-92 cell secretion of IFN-γ / NK-92 cell secretion of IL-10 / NK-92 cell secretion of granzyme B: monoculture, DHT for 72 h before treatment, supernatant
Procedure: The secretion profile was assessed in monoculture conditions without the PCa cell lines.
The medium was collected 24 hours after treatment and stored at −80° C. until readout. Samples were shipped to Brown University to run them in biological duplicate on a Luminex 200 Instrument (R&D LX200-XPON-RUO), which captures cytokines on magnetic antibody-coated beads and measures cytokine levels using a system based on the principles of flow cytometry (see https:/www.luminexcorp.com/luminex-100200/#overviewfor more information). A custom […] panel was split into 34-plex and 18-plex assays (R&D LXSAHM) and was run on the Luminex 200 instrument according to the manufacturer's protocol.

22Rv1 cell line = test: Flow cytometry of HLA-E / PD-L1 surface expression on 22Rv1; type: cell-based; conditions: for HLA-E surface expression, mean fluorescence intensity (MFI): 22Rv1, enza 15 μM, daro 20 μM, 48 h; for surface levels of HLA-E / surface levels of PD-L1: Example 2, 22Rv1
Procedure: The effect of ARi on the NKG2A ligand, HLA-E, was investigated by flow cytometry on PCa cells treated with enza and daro.
as §1
The effect of androgen pathway inhibitors in the expression of HLA-E, a negative and key negative modulator of NK cell function, was also performed using Flow Cytometry. PD-L1 expression levels were also measured. In advance, The NK cell immune checkpoint inhibitor monalizumab (targeting NKG2A and its ligand, HLA-E) was also combined with ARi.

| Compound | expression of CD69 (NK-92 cells [1]) [%] | expression of CD137 (NK-92 cells [1]) [%] | killing of PCa cells by patient-derived NK cells (in words) (LNCaP) | NK-92 secretion of T cell chemokine CCL5 (NK-92 cells [2]) | NK-92 cell secretion of IFN-γ (NK-92 cells [2]) [pg/mL] | NK-92 cell secretion of IL-10 (NK-92 cells [2]) [pg/mL] | NK-92 cell secretion of granzyme B (NK-92 cells [2]) [pg/mL] | HLA-E surface expression, mean fluorescence intensity (MFI) (22Rv1 cell line) | surface levels of HLA-E (22Rv1 cell line) | surface levels of PD-L1 (22Rv1 cell line) |
| --- | --- | --- | --- | --- | --- | --- | --- | --- | --- | --- |
| CC(O)c1cc(C(=O)N[C@@H](C)Cn2ccc(-c3ccc(C#N)c(Cl)c3)n2)n[nH]1 (some centres unmarked) [darolutamide] | 88.63 | 64.87 | enhanced | reduces | 45.6 | 15.24 | 1599 | 30.5±2.69×10^3 | did not change significantly | did not change significantly |
| CNC(=O)c1ccc(N2C(=S)N(c3ccc(C#N)c(C(F)(F)F)c3)C(=O)C2(C)C)cc1F [enzalutamide] | 87.4 | 61.54 | enhanced | reduces | 48.88 | 16.6 | 1027 | 41.14+7.6×10^3 | did not change significantly | did not change significantly |
